The values below are quoted from earlier work in US20040166503A1, “Methods for gene expression profiling” (priority 2004, published 2004).

The subject of data set [1] is bone marrow stem cells and peripheral white blood cell.
Data set [2] deals with extracellular signal-regulated kinase (ERK). To be noted: during TLK286 induced apoptosis.
Data set [3] has as its system cancer cell lines and tumors. The following applies: wide variety of cancer cell lines and tumors.
A further data set has as its system p38 kinase. To be noted: during TLK286 induced apoptosis.
For data set [4], the system named is M7609 xenografts expressing different levels of GST P1-1. To be noted: murine xenografts of M7609; responses positively correlated with GST P1-1 expression.
Data set [5] has as its system c-Jun N-terminal kinase (JNK). The following applies: during TLK286 induced apoptosis.
Data set [6] relates to resistant HL60 human promyelocytic cell line. To be noted: inhibition of glutathione synthesis by BSO.

As to `N[C@@H](CCC(=O)N[C@@H](CS(=O)(=O)CCOP(=O)(N(CCCl)CCCl)N(CCCl)CCCl)C(=O)N[C@@H](C(=O)O)c1ccccc1)C(=O)O` [TLK286, gamma-glutamyl-alpha-amino-beta(2-ethyl-N,N,N′,N-tetrakis(2-chloroethyl)phosphorodiamidate)-sulfonyl-propionyl-(R)-(−)phenylglycine], the “myelosuppressive effect (toxicity)” value in data set [1] is on record as “only mildly toxic”. For the same compound, the ERK activation entry in data set [2] is “not”. For the same compound, the cytotoxicity result in data set [3] is listed as “cytotoxic”. In addition, in the data set on p38 kinase, the p38 kinase activation entry was “not”. In data set [4], the “antitumor activity in vivo” value is given as “antitumor activity has also been observed”. Also, the JNK activation result in data set [5] was “activated”.
In the case of `CCCCS(=N)(=O)CCC(N)C(=O)O` (stereo not shown) [BSO], in data set [6], the “effect on sensitivity of resistant cells to TLK286” value is “increases the sensitivity”.
